In ChEMBL document CHEMBL1201862, “PubChem BioAssay data set” (2004):
The source made the active and inactive calls.

Legend:
Cannabinoid receptor 2 [1] = biological target: T1, Cannabinoid receptor 2 (Homo sapiens, UniProt P34972); experiment: SAR analysis of antagonists of the Cannabinoid Receptor 2 using an Image-Based Assay - Set 2. [Related pubchem assays (depositor defined):AID1961, AID1965]; format: functional
Cannabinoid receptor 2 [2] = biological target: T1, Cannabinoid receptor 2; experiment: SAR analysis of agonists of the Cannabinoid Receptor 2 using an Image-Based Assay - Set 2. [Related pubchem assays (depositor defined):AID1961, AID1965]; format: functional
Cannabinoid receptor 1 = Cannabinoid receptor 1 (Homo sapiens, UniProt P21554); experiment: SAR analysis of antagonists of the Cannabinoid Receptor 1 using an Image-Based Assay. [Related pubchem assays (depositor defined):AID1961, AID1965]; format: functional
[3] = biological target: G-protein coupled receptor 55 (Homo sapiens, UniProt Q9Y2T6); experiment: SAR analysis of selective Agonists of GPR55 using an Image-Based Assay. [Related pubchem assays (depositor defined):AID1961, AID1965]; format: functional
Chain of G-protein coupled receptor 55 (Q9Y2T6 whole entry): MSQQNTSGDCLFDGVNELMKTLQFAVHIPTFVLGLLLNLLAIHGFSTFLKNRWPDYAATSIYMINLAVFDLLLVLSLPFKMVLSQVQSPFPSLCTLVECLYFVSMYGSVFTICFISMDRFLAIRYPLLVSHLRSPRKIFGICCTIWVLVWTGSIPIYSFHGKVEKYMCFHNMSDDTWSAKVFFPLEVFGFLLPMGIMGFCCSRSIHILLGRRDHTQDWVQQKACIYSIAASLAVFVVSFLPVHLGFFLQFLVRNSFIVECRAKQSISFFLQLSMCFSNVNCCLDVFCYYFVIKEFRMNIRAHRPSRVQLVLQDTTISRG

[4] = biological target: Induced myeloid leukemia cell differentiation protein Mcl-1 (Homo sapiens, UniProt Q07820); format: functional
Chain of Induced myeloid leukemia cell differentiation protein Mcl-1 (Q07820 whole entry): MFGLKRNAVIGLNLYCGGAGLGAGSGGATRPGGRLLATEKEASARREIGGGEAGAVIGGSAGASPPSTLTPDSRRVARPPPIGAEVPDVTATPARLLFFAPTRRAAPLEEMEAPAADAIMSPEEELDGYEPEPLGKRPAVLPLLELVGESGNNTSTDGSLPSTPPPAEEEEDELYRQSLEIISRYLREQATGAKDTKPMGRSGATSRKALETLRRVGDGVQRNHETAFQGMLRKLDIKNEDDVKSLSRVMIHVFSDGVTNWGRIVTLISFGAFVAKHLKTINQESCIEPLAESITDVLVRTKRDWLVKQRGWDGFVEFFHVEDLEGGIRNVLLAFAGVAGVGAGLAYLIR

[5] = biological target: T2, Alkaline phosphatase, tissue-nonspecific isozyme (Homo sapiens, UniProt P05186); experiment: activation of tissue-nonspecific alkaline phosphatase – biochemical, TNAP isozyme, mouse IAP uHTS hits, selectivity assay for mouse IAP activator project, dose response (AID 488880); format: functional
T2 sequence (P05186 whole entry): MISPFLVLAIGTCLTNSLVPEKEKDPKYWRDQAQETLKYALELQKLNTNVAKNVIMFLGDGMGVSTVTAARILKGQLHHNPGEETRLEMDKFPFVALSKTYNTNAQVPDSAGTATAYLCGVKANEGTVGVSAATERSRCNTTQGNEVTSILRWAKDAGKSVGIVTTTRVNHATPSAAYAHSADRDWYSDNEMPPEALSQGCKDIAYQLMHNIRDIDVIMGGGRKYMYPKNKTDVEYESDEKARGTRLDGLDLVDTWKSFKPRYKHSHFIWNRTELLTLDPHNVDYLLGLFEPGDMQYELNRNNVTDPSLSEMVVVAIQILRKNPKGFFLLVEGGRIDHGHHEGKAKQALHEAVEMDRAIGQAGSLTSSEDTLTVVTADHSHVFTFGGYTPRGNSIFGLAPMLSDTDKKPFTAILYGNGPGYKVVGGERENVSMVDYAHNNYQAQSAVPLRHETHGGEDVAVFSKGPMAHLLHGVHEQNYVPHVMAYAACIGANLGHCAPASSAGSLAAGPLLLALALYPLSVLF

NS3 = NS3 (Hepatitis C virus, UniProt A3EZJ3); experiment: PubChem AID 2173; set-up: species or system Hepacivirus hominis
[6] = biological target: 1-phosphatidylinositol 4,5-bisphosphate phosphodiesterase beta-3 (Homo sapiens, UniProt Q01970); experiment: Fluorescence-based biochemical high throughput dose response assay to identify inhibitors of phospholipase C isozymes (PLC-B3).
Chain of 1-phosphatidylinositol 4,5-bisphosphate phosphodiesterase beta-3 (Q01970 whole entry): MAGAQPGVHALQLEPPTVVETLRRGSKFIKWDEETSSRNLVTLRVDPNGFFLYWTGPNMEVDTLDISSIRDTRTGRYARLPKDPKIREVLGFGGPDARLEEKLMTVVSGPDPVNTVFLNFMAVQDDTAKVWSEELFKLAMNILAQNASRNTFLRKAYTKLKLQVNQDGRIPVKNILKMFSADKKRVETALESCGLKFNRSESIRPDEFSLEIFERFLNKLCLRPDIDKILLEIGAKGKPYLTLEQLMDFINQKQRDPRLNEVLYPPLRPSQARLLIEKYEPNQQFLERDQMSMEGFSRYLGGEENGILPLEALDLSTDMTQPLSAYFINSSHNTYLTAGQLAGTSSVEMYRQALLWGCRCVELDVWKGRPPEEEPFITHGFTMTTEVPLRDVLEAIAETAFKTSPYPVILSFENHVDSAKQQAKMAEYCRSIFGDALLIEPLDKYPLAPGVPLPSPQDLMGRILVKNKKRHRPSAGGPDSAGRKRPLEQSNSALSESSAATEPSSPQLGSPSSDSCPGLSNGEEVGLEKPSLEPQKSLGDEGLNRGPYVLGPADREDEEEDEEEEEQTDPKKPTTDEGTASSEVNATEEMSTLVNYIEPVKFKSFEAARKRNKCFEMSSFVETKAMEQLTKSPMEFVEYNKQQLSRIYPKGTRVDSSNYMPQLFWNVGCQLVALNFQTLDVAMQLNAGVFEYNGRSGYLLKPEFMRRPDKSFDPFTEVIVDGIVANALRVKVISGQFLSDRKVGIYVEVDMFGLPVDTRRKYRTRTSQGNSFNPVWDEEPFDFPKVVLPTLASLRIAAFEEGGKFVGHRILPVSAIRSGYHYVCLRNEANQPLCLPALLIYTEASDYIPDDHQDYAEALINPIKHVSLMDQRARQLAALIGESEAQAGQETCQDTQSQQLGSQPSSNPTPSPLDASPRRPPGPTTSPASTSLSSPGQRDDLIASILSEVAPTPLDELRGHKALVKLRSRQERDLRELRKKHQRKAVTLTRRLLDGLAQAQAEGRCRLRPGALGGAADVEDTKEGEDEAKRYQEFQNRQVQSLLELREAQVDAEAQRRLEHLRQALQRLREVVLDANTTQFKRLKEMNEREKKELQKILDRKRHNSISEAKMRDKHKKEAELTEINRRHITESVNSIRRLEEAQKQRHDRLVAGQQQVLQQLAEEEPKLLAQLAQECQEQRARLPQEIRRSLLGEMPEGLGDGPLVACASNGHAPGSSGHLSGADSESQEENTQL

[7] = biological target: 1-phosphatidylinositol 4,5-bisphosphate phosphodiesterase gamma-1 (Homo sapiens, UniProt P19174); experiment: Counterscreen for inhibitors of phospholipase C isozymes (PLC-B3): Fluorescence-based biochemical high throughput dose response assay to identify inhibitors of phospholipase C isozymes (PLC-gamma1).
Chain of 1-phosphatidylinositol 4,5-bisphosphate phosphodiesterase gamma-1 (P19174 whole entry): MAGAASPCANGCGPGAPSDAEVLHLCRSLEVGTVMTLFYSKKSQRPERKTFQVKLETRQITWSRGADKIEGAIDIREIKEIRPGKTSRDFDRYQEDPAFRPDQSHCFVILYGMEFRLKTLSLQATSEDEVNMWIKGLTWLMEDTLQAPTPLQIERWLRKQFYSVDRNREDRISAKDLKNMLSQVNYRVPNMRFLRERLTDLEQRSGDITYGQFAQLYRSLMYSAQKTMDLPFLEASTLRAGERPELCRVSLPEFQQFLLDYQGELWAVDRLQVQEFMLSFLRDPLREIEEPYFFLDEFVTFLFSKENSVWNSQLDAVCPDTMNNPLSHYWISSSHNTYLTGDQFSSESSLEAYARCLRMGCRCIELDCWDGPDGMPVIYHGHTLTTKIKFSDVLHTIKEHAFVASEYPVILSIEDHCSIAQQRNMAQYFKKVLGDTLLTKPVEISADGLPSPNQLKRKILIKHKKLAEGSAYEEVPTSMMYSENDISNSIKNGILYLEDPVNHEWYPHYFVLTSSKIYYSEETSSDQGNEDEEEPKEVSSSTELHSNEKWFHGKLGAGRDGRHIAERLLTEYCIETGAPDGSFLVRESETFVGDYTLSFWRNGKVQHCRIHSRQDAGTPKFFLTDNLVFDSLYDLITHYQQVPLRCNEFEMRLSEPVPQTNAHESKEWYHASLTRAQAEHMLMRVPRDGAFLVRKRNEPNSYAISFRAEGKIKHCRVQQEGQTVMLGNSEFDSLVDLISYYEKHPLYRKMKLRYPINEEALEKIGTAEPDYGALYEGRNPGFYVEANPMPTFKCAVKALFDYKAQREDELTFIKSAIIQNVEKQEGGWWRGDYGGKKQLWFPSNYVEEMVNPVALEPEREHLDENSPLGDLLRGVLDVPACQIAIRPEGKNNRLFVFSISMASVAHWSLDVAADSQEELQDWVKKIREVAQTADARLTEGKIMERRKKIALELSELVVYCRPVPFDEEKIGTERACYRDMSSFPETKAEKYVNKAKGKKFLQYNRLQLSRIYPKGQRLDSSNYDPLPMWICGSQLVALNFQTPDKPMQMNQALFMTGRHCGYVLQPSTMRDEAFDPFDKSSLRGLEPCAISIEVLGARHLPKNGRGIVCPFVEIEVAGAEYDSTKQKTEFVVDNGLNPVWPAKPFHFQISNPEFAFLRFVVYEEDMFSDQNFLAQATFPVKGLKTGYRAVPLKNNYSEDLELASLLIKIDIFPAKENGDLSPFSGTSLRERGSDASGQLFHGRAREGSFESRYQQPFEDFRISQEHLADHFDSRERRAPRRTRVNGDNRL

[8] = biological target: Intestinal-type alkaline phosphatase (Homo sapiens, UniProt P09923); experiment: activation of human intestinal alkaline phosphatase – biochemical, dose response (AID 488873); format: functional
[9] = biological target: Intestinal-type alkaline phosphatase (Mus musculus, UniProt P24822); experiment: mouse intestinal alkaline phosphatase activators, dose response, biochemical, luminescence, uHTS hits (AID 488783); format: functional
Chain of Intestinal-type alkaline phosphatase (Mus musculus, UniProt P24822) (P24822 whole entry): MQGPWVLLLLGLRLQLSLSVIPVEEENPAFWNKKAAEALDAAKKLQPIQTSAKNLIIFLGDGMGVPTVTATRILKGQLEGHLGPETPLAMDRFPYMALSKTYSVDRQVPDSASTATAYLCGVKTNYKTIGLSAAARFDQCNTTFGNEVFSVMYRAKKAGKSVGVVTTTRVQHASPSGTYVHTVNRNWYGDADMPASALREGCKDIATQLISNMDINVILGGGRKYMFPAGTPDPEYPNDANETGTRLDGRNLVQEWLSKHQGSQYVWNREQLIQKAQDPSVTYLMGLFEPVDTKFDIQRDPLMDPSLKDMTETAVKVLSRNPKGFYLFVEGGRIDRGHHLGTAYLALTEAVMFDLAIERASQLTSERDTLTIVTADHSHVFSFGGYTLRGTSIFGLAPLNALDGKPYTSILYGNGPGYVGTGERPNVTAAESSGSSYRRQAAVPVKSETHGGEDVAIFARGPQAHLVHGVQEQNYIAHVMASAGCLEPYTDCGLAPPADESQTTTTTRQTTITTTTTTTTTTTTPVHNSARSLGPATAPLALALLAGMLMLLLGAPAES

[10] = biological target: Lysine-specific demethylase 4A (Homo sapiens, UniProt O75164); experiment: inhibition of JMJD2A H3K9me3 demethylation – biochemical, DELFIA europium, cherry-picked samples, selectivity assay for GASC-1 inhibitor project, dose response (AID 488840)
[11] = biological target: T3, Lysine-specific demethylase 4C (Homo sapiens, UniProt Q9H3R0); experiment: inhibition of JMJD2C H3K9me3 demethylation – biochemical, DELFIA europium, cherry-picked samples, dose response (AID 488835); format: functional
T3 sequence (Q9H3R0 whole entry): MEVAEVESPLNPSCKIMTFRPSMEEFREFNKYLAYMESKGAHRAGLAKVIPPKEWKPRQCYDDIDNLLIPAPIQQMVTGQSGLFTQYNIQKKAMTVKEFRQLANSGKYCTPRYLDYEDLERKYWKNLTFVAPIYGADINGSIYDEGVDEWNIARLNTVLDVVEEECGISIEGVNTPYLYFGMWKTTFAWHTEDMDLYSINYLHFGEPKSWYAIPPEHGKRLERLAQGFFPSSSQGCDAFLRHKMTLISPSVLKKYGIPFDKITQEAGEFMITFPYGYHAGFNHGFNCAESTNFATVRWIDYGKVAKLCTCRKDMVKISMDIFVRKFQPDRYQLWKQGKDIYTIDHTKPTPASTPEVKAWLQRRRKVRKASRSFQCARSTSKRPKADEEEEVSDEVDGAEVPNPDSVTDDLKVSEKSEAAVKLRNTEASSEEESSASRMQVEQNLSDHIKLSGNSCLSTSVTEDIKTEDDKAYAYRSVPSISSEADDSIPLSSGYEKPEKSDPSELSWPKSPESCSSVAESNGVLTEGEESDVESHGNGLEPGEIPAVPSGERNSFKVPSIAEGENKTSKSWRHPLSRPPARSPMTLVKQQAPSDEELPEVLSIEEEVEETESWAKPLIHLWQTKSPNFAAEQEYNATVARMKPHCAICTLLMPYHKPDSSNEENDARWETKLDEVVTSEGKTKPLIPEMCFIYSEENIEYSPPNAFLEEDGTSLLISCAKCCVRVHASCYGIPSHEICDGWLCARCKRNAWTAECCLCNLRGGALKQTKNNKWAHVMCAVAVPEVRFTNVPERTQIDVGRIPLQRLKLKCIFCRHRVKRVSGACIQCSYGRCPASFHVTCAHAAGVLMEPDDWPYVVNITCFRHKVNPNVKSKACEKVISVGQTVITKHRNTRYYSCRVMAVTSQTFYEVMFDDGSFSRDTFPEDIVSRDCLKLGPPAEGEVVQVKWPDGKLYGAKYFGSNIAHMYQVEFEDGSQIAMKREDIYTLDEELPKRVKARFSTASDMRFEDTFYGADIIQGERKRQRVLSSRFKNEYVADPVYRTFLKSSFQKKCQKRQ

[12] = biological target: T4, E3 ubiquitin-protein ligase XIAP (Homo sapiens, UniProt P98170); experiment: Chemical Antagonists of IAP-family anti-apoptotic proteins confirmation. [Related pubchem assays (depositor defined):AID1018, AID1513, AID1514, AID1638, AID1749, AID1750, AID488957, AID488963]
T4 sequence (P98170 whole entry): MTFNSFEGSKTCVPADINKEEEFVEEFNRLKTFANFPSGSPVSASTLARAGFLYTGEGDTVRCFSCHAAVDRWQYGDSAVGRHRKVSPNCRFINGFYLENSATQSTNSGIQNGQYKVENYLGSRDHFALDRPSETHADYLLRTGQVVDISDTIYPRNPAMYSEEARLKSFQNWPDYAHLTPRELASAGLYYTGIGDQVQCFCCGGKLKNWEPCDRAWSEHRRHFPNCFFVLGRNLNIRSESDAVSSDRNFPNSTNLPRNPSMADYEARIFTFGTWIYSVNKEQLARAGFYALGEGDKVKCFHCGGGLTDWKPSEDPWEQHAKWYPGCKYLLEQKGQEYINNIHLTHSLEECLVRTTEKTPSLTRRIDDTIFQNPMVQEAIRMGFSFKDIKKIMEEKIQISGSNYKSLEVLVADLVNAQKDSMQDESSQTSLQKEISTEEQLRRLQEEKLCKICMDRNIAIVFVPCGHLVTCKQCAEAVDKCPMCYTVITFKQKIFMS

[13] = biological target: T4, E3 ubiquitin-protein ligase XIAP; experiment: Counter Screen using XIAP-Bir3 of the Chemical Antagonists of IAP-family anti-apoptotic proteins confirmation assay. [Related pubchem assays (depositor defined):AID1018, AID1449, AID1513, AID1638, AID1749, AID1750, AID488957, AID488963]

T1 sequence (P34972 whole entry): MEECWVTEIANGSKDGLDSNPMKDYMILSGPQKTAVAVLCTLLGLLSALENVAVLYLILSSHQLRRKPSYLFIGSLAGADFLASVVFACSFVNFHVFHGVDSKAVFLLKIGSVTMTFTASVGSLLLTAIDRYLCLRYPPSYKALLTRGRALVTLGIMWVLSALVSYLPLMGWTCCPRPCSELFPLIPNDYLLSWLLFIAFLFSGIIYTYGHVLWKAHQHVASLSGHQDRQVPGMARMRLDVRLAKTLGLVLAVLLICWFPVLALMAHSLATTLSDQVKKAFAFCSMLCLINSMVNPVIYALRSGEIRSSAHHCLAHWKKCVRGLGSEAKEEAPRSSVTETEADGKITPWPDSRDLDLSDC

## CCCN(CCC)Cc1c(C(=O)NN=Cc2c[nH]c3ccccc23)nnn1-c1nonc1N
Cannabinoid receptor 2 [1]
  IC50: > 32 µM (inactive)
Cannabinoid receptor 2 [2]
  EC50: > 32 µM (inactive)
Cannabinoid receptor 1
  IC50: > 32 µM (inactive)
[3]
  EC50: 0.633 µM (active)

## O=C1/C(=C/C=C/c2ccco2)SC(=S)N1c1ccc(O)cc1
[4]
  IC50: 1.72 µM (active)
[5]
  EC50: 91.3 µM (active)
NS3
  IC50: 5.35 µM (active)
[6]
  IC50: > 123 µM (inactive)
[7]
  IC50: > 123 µM (inactive)
[8]
  EC50: 84.7 µM (active)
[9]
  EC50: 59 µM (active)

## CCCCOc1ccc(CC2C(=O)N(C)C(=O)N(C)C2=O)cc1
[10]
  AC50: 12.5 µM (active)
[11]
  AC50: 1.76 µM (active)

## CC(C(=O)O)N1Cc2ccccc2C1=O (stereo not given)
[12]
  IC50: > 200 µM (inactive)
[13]
  IC50: > 200 µM (inactive)
